# Where two headings read alike, the source gives them in different places. Marks after values point to notes of the source that are not given here.
# How the values were obtained:
# RIF-1 murine tumor = experiment: RIF-1 murine model of tumor growth delay; format: in vivo, mice; settings: for Days Delay (tumor growth delay) / Median (days to 4x) / Days to 4x (Ave ±SE) / T/C (ratio of Days to 4x of treated over untreated controls): IP, imidazoline 100 mg/kg, cis-platin 4 mg/kg, camptothecin 6 mg/kg; for Median (days to 4x): untreated 7.0; for Days to 4x (Ave ±SE): untreated 7.3 ± 0.6; for chemopotentiation of camptothecin: combinational treatment with camptothecin (CPT); for chemopotentiation of camptothecin / chemopotentiation of cis-platin: RIF-1 tumors in mice; for chemopotentiation of cis-platin: combinational treatment with cis-platin (CDDP)
# Experimental: Tumor cells were injected, bilaterally, into the backs of mice. When tumors reached 100 mm^3, the mice were treated with an intraperitoneal injection of the compound. Tumor volumes were measured 3 times a week until they reached 4 times the size they were on the first treatment day. Data is recorded as “Days to 4×’ or ratio of ‘Days to 4×” of the treated over untreated controls.
# NF-κB [1] = target: T1, NF-κB (Homo sapiens, UniProt P19838+Q04206); experiment: EMSA of nuclear NF-κB-DNA binding in nuclear extracts of PMA-stimulated Jurkat leukemia T-cells; format: cell-based; parameters: endogenous in cells; host or cells: Jurkat leukemia T-cells, clone E6-1 (ATCC), PMA-stimulated; nuclear extract
# Experimental: (§1) All compounds were evaluated for their potential anti-inflammatory activity by examining the activity of NF-κB in vitro in nuclear extracts using the procedure from Breton and Charbot-Fletcher (Breton et al., J. Pharmacol. Exp. Ther. 282 459-466 (1997)). […] The Jurkat cells (1×10^7 cells/mL) are subsequently treated with various concentrations of imidazoline for 30 minutes at 37° C. followed by PMA stimulation (5.0 ng/mL) for an additional 5 hours. Nuclear extracts are incubated for 20 minutes with a double stranded Cy3 labeled NF-κB consensus oligonucleotide, 5′-[…]-3′ (SEQ ID NO:1) at room temperature. The crude mixture is loaded on a 5% non-denaturing polyacrylamide gel prepared in 1×Tris borate/EDTA buffer and electrophoresed at 200V for 2 hours. After electrophoresis the gel is analyzed using a phosphorimager (Biorad FX PLUS) for detection of the NF-κB-DNA binding.
# EMSA assay for NF-κB-DNA binding was as follows. […] The Jurkat cells (1×10^6 cells/mL) were subsequently treated with various concentrations of the compounds for 30 minutes at 37° C. and 5% CO2 followed by PMA (50 ng/mL) and PHA ([…]) stimulation for an additional 30 minutes. The cells were harvested by centrifugation, washed in ice cold PBS and the nuclear extracts were prepared as previously described (Dignam, et al., Nucl. Acids Res 11: 1475-1489 (1983)). The protein concentration of the extracts was determined according to the Method of Bradford (1976) with BioRad reagents. Nuclear extracts are incubated for 20 minutes at room temperature with a double stranded Cy3 labeled NF-kB consensus oligonucleotide, 5′-[…] CCAGGC-3′ (SEQ ID NO:1). The binding mixture ([…]) contained 10 mM HEPES-NaOH pH 7.9, 4 mM tris-HCl, pH 7.9, 6.0 mM KCl, 1 mM EDTA, 1 mM DTT, 10% glycerol, 0.3 mg/mL bovide serum albumin and […] of poly (dI.dC). The binding mixtures ([…] of nuclear extract protein) were incubated for 20 minutes at room temrperature with 0.16 pmol of Cy3 labeled oligonucleotide. The mixture was loaded on a 4% polyacrylamide gel prepared in 1× tris borate/EDTA buffer and was electrophoresed at 200 V for 20 minutes. After electrophoresis the gel was analyzed using a phosphorimager (Biorad FX plus) for detection of the NF-kB—DNA binding.
# NF-κB [2] = target: T1, NF-κB; experiment: IC50 values in Mammalian Jurkat cells Leukemia T cells; format: cell-based; parameters: endogenous in cells; host or cells: Jurkat leukemia T-cells, clone E6-1 (ATCC), PMA-stimulated; nuclear extract; settings: concentration at which 50% of the protein/enzyme is inhibited in cells
# Experimental: as §1
# IC50 values in Mammalian Jurkat cells Leukemia T cells: IC50 value is defined as the concentration of compounds at which 50% of the protein/enzyme is inhibited in cells (Table 3).
# CEM cells = settings: for sensitization of CEM cells towards camptothecin: camptothecin 0.1 μM
# Experimental: Imidazolines 28-33 were evaluated for their ability to enhance the activity of camptothecin in CEM cells. Induction of apoptosis is the hallmark of most chemotherapeutic agents including camptothecin. The systematic disassembly of apoptotic cells is accomplished by active caspases (Thornberry et al., Nature 356: 768-774 (1992); Nicholson et al., Trends Biochem. Sci. 22: 299-306 (1997)). A standard apoptosis assay is Promega's APO-ONE homogeneous caspase-3/7 assay, which takes advantage of this caspase activity to directly quantify the induction of apoptosis in cells (Thornberry et al., Nature 356: 768-774 (1992); Nicholson et al., Trends Biochem. Sci. 22: 299-306 (1997)). According to the hypothesis that NF-κB inhibition should enhance the activity of chemotherapeutic agents via the inhibition of anti-apoptotic signaling pathway—thus enhancement of apoptosis—(Boland, Biochem Soc Trans 29: 674-678 (2001); Chiao et al., Cancer 95: 1696-1705 (2002)), we investigated the effects of the imidazolines using this caspase-3/7 assay. This assay quantifies the level of apoptotic cell death induced by camptothecin with and without the imidazolines and will establish the direct level of enhancement of apoptosis by camptothecin.
# Induction of apoptosis using caspase 3/7 assay was as follows. CEM cells (CCRF-CEM); Amer. Type Culture Collection, Rockville, Md.) were grown in RPMI-1640 Media (Gibco-BRL, Rockville, Md.) supplemented with 10% fetal bovine serum, penicillin (614 ηg/mL), streptomycin (10 μg/mL) and hepes buffer, pH 7.2 at 37° C., 5% CO2. DMSO was used as the vector for all drugs and added in the control experiments. Cell cultures were treated with 1 μM, 0.1 μM or 10 nM of the imidazolines and allowed to incubate at 37° C., 5% CO2. An aliquote was transferred to a 96-well plate and mixed with an equal volume of Apo-ONE™ Homogenous Caspase-3/7 assay (Promega Corporation) reagent. The contents of the plate were gently mixed and allowed to incubate for 1 hour. The fluorescence of each well was then measured on a Molecular Imager FX Pro at 532 nm. All reported data was the average of two independent experiments unless otherwise indicated.
# [3] = IP, doses 5.0 and 50 mg/kg
# Experimental: Prior to the combinatorial studies, the toxicity of the compounds was determined in the mouse model. […] In short, the drugs are dissolved in DMSO and 100 μL given to the mice on day 0 by intraperitoneal injection (IP). […] Weight and death were the two measures of toxicity.
# NF-κB [4] = target: T1, NF-κB; experiment: EMSA of camptothecin activated NF-κB in CEM leukemia T-cells; format: cell-based; parameters: endogenous in cells; nuclear extract; settings: camptothecin 10 μM to 10 nM, 2 hours
# Experimental: CEM cells were incubated with and without varying concentrations of camptothecin (CPT). Positive controls included PMA/PHA activation (FIG. 11, lane 2). Lane 3 included a positive control using PMA/PHA activation followed by the treatment of the extract with a NF-κB p65 antibody to unambiguously identify the NF-κB/DNA complex.
# CEM cells were treated with various concentration of imidazoline 32, 30 minutes prior to activation by camptothecin (0.1 μM). […] Control lanes include: DNA only (lane 1), PMA/PHA activated NF-κB (lane 2), PMA/PHA activated NF-κB treated with a p65 antibody, which provide a supershift (lane 3) and the unactivated control (lane 4).
# EMSA assay for NF-κB-DNA binding was as follows. […] The cells were harvested by centrifugation, washed in ice cold PBS and the nuclear extracts were prepared as previously described (Dignam, et al., Nucl. Acids Res 11: 1475-1489 (1983)). The protein concentration of the extracts was determined according to the Method of Bradford (1976) with BioRad reagents. Nuclear extracts are incubated for 20 minutes at room temperature with a double stranded Cy3 labeled NF-kB consensus oligonucleotide, 5′-[sequence] […] The binding mixture (25 mL) contained 10 mM HEPES-NaOH pH 7.9, 4 mM tris-HCl, pH 7.9, 6.0 mM KCl, 1 mM EDTA, 1 mM DTT, 10% glycerol, 0.3 mg/mL bovide serum albumin and 1 mg of poly (dI.dC). The binding mixtures (10 mg of nuclear extract protein) were incubated for 20 minutes at room temrperature with 0.16 pmol of Cy3 labeled oligonucleotide. The mixture was loaded on a 4% polyacrylamide gel prepared in 1× tris borate/EDTA buffer and was electrophoresed at 200 V for 20 minutes. After electrophoresis the gel was analyzed using a phosphorimager (Biorad FX plus) for detection of the NF-kB—DNA binding.
# T1 sequence (Q04206 whole entry): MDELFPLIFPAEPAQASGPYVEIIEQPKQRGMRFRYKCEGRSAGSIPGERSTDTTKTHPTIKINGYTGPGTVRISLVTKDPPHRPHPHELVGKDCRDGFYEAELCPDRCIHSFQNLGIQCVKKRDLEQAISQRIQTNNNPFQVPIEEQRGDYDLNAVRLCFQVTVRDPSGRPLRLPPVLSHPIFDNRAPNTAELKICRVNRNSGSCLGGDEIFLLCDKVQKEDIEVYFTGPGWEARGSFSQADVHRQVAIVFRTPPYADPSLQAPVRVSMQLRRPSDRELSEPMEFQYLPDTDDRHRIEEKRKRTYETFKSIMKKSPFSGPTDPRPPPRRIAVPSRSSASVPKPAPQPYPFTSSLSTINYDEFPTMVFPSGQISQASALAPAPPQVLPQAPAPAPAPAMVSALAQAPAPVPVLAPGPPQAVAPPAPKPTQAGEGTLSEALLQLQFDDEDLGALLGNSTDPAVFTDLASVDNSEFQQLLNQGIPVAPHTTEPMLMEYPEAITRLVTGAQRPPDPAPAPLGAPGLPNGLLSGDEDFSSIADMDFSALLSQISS
# T1 sequence (P19838 1-433 limits assumed): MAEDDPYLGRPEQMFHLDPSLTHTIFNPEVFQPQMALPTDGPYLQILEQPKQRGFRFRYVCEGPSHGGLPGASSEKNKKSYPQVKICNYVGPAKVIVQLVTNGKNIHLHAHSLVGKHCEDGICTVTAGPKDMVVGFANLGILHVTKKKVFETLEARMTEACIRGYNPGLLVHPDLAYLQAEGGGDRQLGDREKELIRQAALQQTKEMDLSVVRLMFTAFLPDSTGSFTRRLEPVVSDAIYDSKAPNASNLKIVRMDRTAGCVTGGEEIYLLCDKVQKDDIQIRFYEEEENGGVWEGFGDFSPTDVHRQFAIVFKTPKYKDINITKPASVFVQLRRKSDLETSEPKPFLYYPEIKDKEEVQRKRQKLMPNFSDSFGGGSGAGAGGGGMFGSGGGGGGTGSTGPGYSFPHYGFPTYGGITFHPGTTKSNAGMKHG
compound,measurement,setting,value
"C[C@]1(C(=O)O)N=C(c2ccccc2)N(Cc2ccccc2)[C@H]1c1ccccc1 (racemic) [Compound 1, Dl-(3S,4S)-1-Benzyl-4-methyl-2,5-diphenyl-4,5-dihydro-1H-imidazole-4-carboxylic acid]",Days Delay (tumor growth delay),RIF-1 murine tumor,-0.57 days
same,Median (days to 4x),RIF-1 murine tumor,6.4 days
same,Days to 4x (Ave ±SE),RIF-1 murine tumor,6.5 ± 0.3 days
same,chemopotentiation of camptothecin,RIF-1 murine tumor,no significant chemopotentiation
same,chemopotentiation of cis-platin,RIF-1 murine tumor,no significant chemopotentiation
same,inhibition at 1 µM,NF-κB [1]; compound 1.0 μM,19%
same,IC50,NF-κB [2],1950 nM
"COc1ccc([C@@H]2N(Cc3ccccc3)C(c3ccccc3)=N[C@]2(C)C(=O)O)cc1 (racemic) [Compound 2, Dl-(3S,4S)-1-Benzyl-5-(4-methoxyphenyl)-4-methyl-2-phenyl-4,5-dihydro-1H-imidazole-4-carboxylic acid]",inhibition at 1 µM,NF-κB [1]; compound 1.0 μM,68%
same,IC50,NF-κB [2],40 nM
"C[C@]1(C(=O)O)N=C(c2ccccc2)N(c2ccc(F)cc2)[C@H]1c1ccccc1 (racemic) [Compound 3, Dl-(3S,4S)-1-(4-Fluorophenyl)-4-methyl-2,5-diphenyl-4,5-dihydro-1H-imidazole-4-carboxylic acid]",Days Delay (tumor growth delay),RIF-1 murine tumor,-0.20 days
same,Median (days to 4x),RIF-1 murine tumor,6.8 days
same,Days to 4x (Ave ±SE),RIF-1 murine tumor,7.6 ± 1.0 days
same,chemopotentiation of camptothecin,RIF-1 murine tumor,no significant chemopotentiation
same,chemopotentiation of cis-platin,RIF-1 murine tumor,no significant chemopotentiation
same,inhibition at 1 µM,NF-κB [1]; compound 1.0 μM,35%
same,IC50,NF-κB [2],6.5 nM
"O=C(O)C1(Cc2c[nH]c3ccccc23)N=C(c2ccccc2)N(Cc2ccccc2)C1c1ccccc1 (racemic) [Compound 5, Dl-(3S,4S)-1-Benzyl-4-(1H-indol-3-ylmethyl)-2,5-diphenyl-4,5-dihydro-1H-imidazole-4-carboxylic acid]",% inhibition of NF-κB,NF-κB [1]; compound 1.0 μM,0%
"CCOC(=O)[C@H]1N(c2ccc(F)cc2)C(c2ccccc2)=N[C@]1(C)C(=O)O (racemic) [Compound 8, Dl-(3S,4S)-1-(4-Fluorophenyl)-4-methyl-2-phenyl-4,5-dihydro-1H-imidazole-4,5-dicarboxylic acid 5-ethyl ester]",% inhibition of NF-κB,NF-κB [1]; compound 0.1 μM (100 nM),88%
same,% inhibition of NF-κB,NF-κB [1]; compound 1.0 μM,94%
"CCOC(=O)[C@@]1(C)N=C(c2ccccc2)N(Cc2ccccc2)[C@H]1c1ccncc1 (racemic) [Compound 9, Dl-(3S,4S)-1-Benzyl-4-methyl-2-phenyl-5-pyridin-4-yl-4,5-dihydro-1H-imidazole-4-carboxylic acid ethyl ester]",% inhibition of NF-κB,"NF-κB [1]; compound 0.1 μM (100 nM), 0.1 µM",71%
"CCOC(=O)C1(C)N=C(c2ccccc2)N(Cc2ccccc2)C1c1ccccc1 (racemic) [Compound 10, Dl-(3S,4S)-1-Benzyl-4-methyl-2,5-diphenyl-4,5-dihydro-1H-imidazole-4-carboxylic acid ethyl ester]",% inhibition of NF-κB,NF-κB [1]; compound 0.1 μM (100 nM),22%
"CCOC(=O)[C@H]1N(c2ccc(F)cc2)C(c2ccccc2)=N[C@]1(C)C(=O)O (racemic) [Compound 29, dl-(4S,5S)-1-(4-Fluorophenyl)-4-methyl-2-phenyl-4,5-dihydro-1H-imidazole-4,5-dicarboxylic acid 5-ethyl ester]",Apoptosis (±S.D.),"CEM cells; Compound 1.0 μm alone, T-cells, 48 hour period, cells only = 1.00 (normalized)",0.95 ± 0.24
"CCOC(=O)[C@H]1N(c2ccc(F)cc2)C(c2ccccc2)=N[C@@]1(C(=O)O)c1ccccc1 (racemic) [Compound 30, dl-(4S,5S)-1-(4-Fluorophenyl)-2,4-diphenyl-4,5-dihydro-1H-imidazole-4,5-dicarboxylic acid 5-ethyl ester]",Apoptosis (±S.D.),CEM cells,1.18 ± 0.20
same,sensitization of CEM cells towards camptothecin,CEM cells; 0.01 μM imidazoline,sensitization
same,sensitization of CEM cells towards camptothecin,CEM cells; 0.1 μM imidazoline,sensitization
same,sensitization of CEM cells towards camptothecin,CEM cells; 1 μM imidazoline,sensitization
"C[C@]1(C(=O)O)N=C(c2ccccc2)N(Cc2ccccc2)[C@H]1c1ccncc1 (racemic) [Compound 31, dl-(4S,5S)-1-Benzyl-4-methyl-2-phenyl-5-pyridin-4yl-4,5-dihydro-1H-imidazole-4-carboxylic acid]",Apoptosis (±S.D.),CEM cells,1.18 ± 0.00^b
same,sensitization of CEM cells towards camptothecin,CEM cells; 0.01 μM imidazoline,sensitization
same,sensitization of CEM cells towards camptothecin,CEM cells; 0.1 μM imidazoline,sensitization
same,sensitization of CEM cells towards camptothecin,CEM cells; 1 μM imidazoline,sensitization
"C[C@]1(C(=O)O)N=C(c2ccccc2)N(Cc2ccccc2)[C@H]1c1ccccc1 (racemic) [Compound 33, dl-(4S,5S)-1-Benzyl-4-methyl-2,5-diphenyl-4,5-dihydro-1H-imidazole-4-carboxylic acid]",tolerability in mice,[3],well tolerated
"CC[C@@]1(O)C(=O)OCc2c1cc1n(c2=O)Cc2cc3ccccc3nc2-1 [Camptothecin, camptothecin, reference compound]",Days Delay (tumor growth delay),RIF-1 murine tumor,3.79 days
same,T/C (ratio of Days to 4x of treated over untreated controls),RIF-1 murine tumor,1.4
same,Median (days to 4x),RIF-1 murine tumor,10.8 days
same,Days to 4x (Ave ±SE),RIF-1 murine tumor,10.3 ± 0.6 days
same,Fold enhancement of camptothecin (0.1 μM) after 48 hours,"CEM cells; CEM cells, imidazoline 1.0 μM + CPT 0.1 μM versus CPT 0.1 μM",1.00
same,NF-κB/DNA binding due to NF-κB activation,NF-κB [4],significant amount of NF-κB/DNA binding
"N.N.[Cl][Pt][Cl] [Cis-platin, cis-platin, reference compound]",Days Delay (tumor growth delay),RIF-1 murine tumor,0.82 days
same,T/C (ratio of Days to 4x of treated over untreated controls),RIF-1 murine tumor,1.1
same,Median (days to 4x),RIF-1 murine tumor,7.8 days
same,Days to 4x (Ave ±SE),RIF-1 murine tumor,8.1 ± 0.4 days

# From patent US7345078B2, “NF-κB inhibitors and uses thereof” (The Board of Trustees of Michigan State University, priority 2002, dated 2008)
